Measurements taken from patent US20240101548A1, “HYDROXAMATE COMPOUND, PREPARATION METHOD THEREFOR AND APPLICATION THEREOF” (SHENZHEN CHIPSCREEN BIOSCIENCES CO., LTD., priority 2020, published 2024).

Experiments:
[1] = test system: EPO-induced JAK2 signal pathway; assay: EPO-induced proliferation of UT-7 cells (JAK2 signal); assay type: cell-based, human; details: Homo sapiens, UT7; UT-7 cell proliferation, EPO 10 ng/mL, 72 hours; read-out: Inhibition activity IC50 on EPO-induced JAK2 signal pathway
Protocol: The cytokine EPO, i.e. erythropoietin, can promote the proliferation and division of erythroid progenitor cells, and the signal pathway induced by EPO coupling with its receptor is mediated by JAK2-STAT5.
Human promegakaryocytic leukemia cell line UT-7 was commercially available from Cell Resource Center, Institute of Basic Medicine, Chinese Academy of Medical Sciences. The culture medium was RPIM1640 containing 10% FBS, and EPO was added for a final concentration of 10 ng/mL.
The inhibition rate of the tested compound on EPO-induced cell proliferation was calculated using Microsoft Excel.
UT-7 cell line was inoculated in 96-well plate with flat bottom at 15000 cells per well, each well was added with 10 ng/mL of human recombinant EPO (Human EPO PEPROTECH 100-64-10UG), along with tested compound respectively for a final concentration of 0, 100, 1000 or 10000 nM. After culture at 37° C. and 5% CO2 for 72 hours, alamarBlue™ Cell Viability Reagent was added to each well following the instructions. After incubation at 37° C. for color reaction, the fluorescence value at Ex530/Em590 was detected using Tecan Spark™ 10M multimode microplate reader.
(§1) The well in which neither compound nor cytokine was added was designated as 00 control well, and the fluorescence value in the wells in which the final concentration of compound was 0 was designated as 100 control. The inhibition activity MC50 ofthe tested compound on JAK2 could be calculated from the inhibition rate ofthe tested compound on EPO-induced cell proliferation at different doses.

[2] = test system: IL-2-induced JAK1/JAK3 signal pathway; assay: IL-2-induced proliferation of KHYG-1 cells (JAK1/JAK3 signal); assay type: cell-based, human; details: Homo sapiens; KHYG-1 cell proliferation, IL-2 10 ng/mL, 72 hours; read-out: Inhibition activity IC50 on IL-2-induced JAK1/JAK3 signal pathway
Excerpt: The main physiological function of cytokine IL-2 is to stimulate and maintain the proliferation and differentiation of T cells. Generally, IL-2 dependent T cells cannot survive in in-vitro culture for a long time, but the addition of IL-2 can make them continue to proliferate. The signal pathway induced by IL-2 coupling with its receptor is mediated by JAK1/JAK3-STAT5, so the inhibitor of JAK1 and/or JAK3 can inhibit the proliferation of IL-2 dependent cells.
Human natural killer cell lymphoma cell line KHYG-1 was commercially available from Health Science Research Resources Bank (HSRRB), and relevant culture conditions referred to those from HSRRB.
The inhibition rate of the tested compound on IL-2-induced cell proliferation was calculated using Microsoft Excel.
After culture at 37° C. and 5% CO2 for 72 hours, alamarBlue™ Cell Viability Reagent was added to each well following the instructions.
as §1, with “0%” for “00”, “100%” for “100”, “[…] of the” for “MC50 ofthe”, “JAK1/JAK3” for “JAK2”, “of the” for “ofthe”, “IL-2-induced” for “EPO-induced”

Compound | IC50 [1] | IC50 [2]
CCONC(=O)c1cnc(Nc2nc(C)cc(C)n2)cc1Nc1ccc(C)cc1N(C)S(=O)(=O)C1CC1 [Example 66, 6-((4,6-dimethylpyrimidin-2-yl)amino)-N-ethoxy-4-((4-methyl-2-(N-methylcyclopropylsulfonamido)phenyl)amino)nicotinamide] | > 10 µM | > 10 µM
CONC(=O)c1c(Nc2ccc(C3CC3)cc2N(C)S(C)(=O)=O)cc(Nc2cccc(F)n2)nc1C [Example 67, 4-((4-cyclopropyl-2-(N-methylmethanesulfonamido)phenyl)amino)-6-((6-fluoropyridin-2-yl)amino)-N-methoxy-2-methyl nicotinamide] | > 10 µM | > 10 µM
CCNC(=O)c1cnc(NC(=O)C2CC2)cc1Nc1cccc(-c2cnn(C)c2)c1OC [Example 71, 6-(cyclopropylcarboxamido)-N-ethyl-4-((2-methoxy-3-(1-methyl-1H-pyrazol-4-yl)phenyl)amino)nicotinamide] | > 10 µM | > 10 µM
CONC(=O)c1cnc(Nc2ccc(S(C)(=O)=O)cc2)cc1Nc1cccc(-c2cnn(C)c2)c1OC [Example 72, N-methoxy-4-((2-methoxy-3-(1-methyl-1H-pyrazol-4-yl)phenyl)amino)-6-((4-(methanesulfonyl)phenyl)amino)nicotinamide] | > 10 µM | > 10 µM
CONC(=O)c1cnc(NC(=O)C2CC2)cc1Nc1ccccc1P(C)(C)=O [Example 73, 6-(cyclopropylcarboxamido)-4-((2-(dimethylphosphoryl)phenyl)amino)-N-methoxy nicotinamide] | > 10 µM | > 10 µM
CONC(=O)c1cnc(Nc2cccc(F)n2)cc1Nc1ccccc1P(C)(C)=O [Example 74, 4-((2-(dimethylphosphoryl)phenyl)amino)-6-((6-fluoropyridin-2-yl)amino)-N-methoxy nicotinamide] | > 10 µM | > 10 µM
CONC(=O)c1cnc(NC(=O)C2CC2)cc1Nc1cccc(Cl)c1N(C)S(C)(=O)=O [Example 75, 4-((3-chloro-2-(N-methylmethanesulfonamido)phenyl)amino)-6-(cyclopropylcarboxamido)-N-methoxy nicotinamide] | > 10 µM | > 10 µM
CONC(=O)c1cnc(Nc2cccc(F)n2)cc1Nc1cccc(Cl)c1N(C)S(C)(=O)=O [Example 76, 4-((3-chloro-2-(N-methylmethanesulfonamido)phenyl)amino)-6-((6-fluoropyridin-2-yl)amino)-N-methoxy nicotinamide] | > 10 µM | > 10 µM
CONC(=O)c1cnc(Nc2ccc(F)cn2)cc1Nc1cccc(Cl)c1N(C)S(C)(=O)=O [Example 77, 4-((3-chloro-2-(N-methylmethanesulfonamido)phenyl)amino)-6-((5-fluoropyridin-2-yl)amino)-N-methoxy nicotinamide] | > 10 µM | > 10 µM
CONC(=O)c1cnc(Nc2cccnc2OC)cc1Nc1cccc(Cl)c1N(C)S(C)(=O)=O [Example 78, 4-((3-chloro-2-(N-methylmethanesulfonamido)phenyl)amino)-N-methoxy-6-((2-methoxypyridin-3-yl)amino)nicotinamide] | > 10 µM | > 10 µM
CONC(=O)c1cnc(NC(=O)C2CC2)cc1Nc1cccc(C(F)(F)F)c1N(C)S(C)(=O)=O [Example 82, 6-(cyclopropylcarboxamido)-N-methoxy-4-((2-(N-methylmethanesulfonamido)-3-(trifluoromethyl)phenyl)amino)nicotinamide] | > 10 µM | > 10 µM
CONC(=O)c1cnc(Nc2cccc(F)n2)cc1Nc1cccc(C(F)(F)F)c1N(C)S(C)(=O)=O [Example 83, 6-((6-fluoropyridin-2-yl)amino)-N-methoxy-4-((2-(N-methylmethanesulfonamido)-3-(trifluoromethyl)phenyl)amino)nicotinamide] | > 10 µM | > 10 µM
CONC(=O)c1cnc(Nc2ccc(F)cn2)cc1Nc1cccc(C(F)(F)F)c1N(C)S(C)(=O)=O [Example 84, 6-((5-fluoropyridin-2-yl)amino)-N-methoxy-4-((2-(N-methylmethanesulfonamido)-3-(trifluoromethyl)phenyl)amino)nicotinamide] | > 10 µM | > 10 µM
CONC(=O)c1cnc(NC(=O)C2CC2)cc1Nc1cccc(C2CC2)c1N(C)S(C)(=O)=O [Example 85, 6-(cyclopropylcarboxamido)-4-((3-cyclopropyl-2-(N-methylmethanesulfonamido)phenyl)amino)-N-methoxy nicotinamide] | > 10 µM | > 10 µM
CONC(=O)c1cnc(Nc2cccc(F)n2)cc1Nc1cccc(C2CC2)c1N(C)S(C)(=O)=O [Example 86] | > 10 µM | > 10 µM
CONC(=O)c1cnc(NC(=O)C2CC2)cc1Nc1cccc(-c2cnn(C)c2)c1N(C)S(C)(=O)=O [Example 87, 6-(cyclopropylcarboxamido)-N-methoxy-4-((3-(1-methyl-1H-pyrazol-4-yl)-2-(N-methylmethanesulfonamido)phenyl)amino)nicotinamide] | > 10 µM | > 10 µM
CONC(=O)c1cnc(Nc2cccc(F)n2)cc1Nc1cccc(-c2cnn(C)c2)c1N(C)S(C)(=O)=O [Example 88, 6-((6-fluoropyridin-2-yl)amino)-N-methoxy-4-((3-(1-methyl-1H-pyrazol-4-yl)-2-(N-methylmethanesulfonamido)phenyl)amino)nicotinamide] | > 10 µM | > 10 µM
CONC(=O)c1cnc(NC(=O)C2CC2)cc1Nc1ccccc1S(C)(=O)=O [Example 89] | > 10 µM | > 10 µM
CN(c1ccccc1Nc1cc(NC(=O)C2CC2)ncc1C(=O)NOC(C)(C)C)S(C)(=O)=O [Example 91, N-(t-butoxy)-6-(cyclopropylcarboxamido)-4-((2-(N-methylmethanesulfonamido)phenyl)amino)nicotinamide] | > 10 µM | > 10 µM
CONC(=O)c1cnc(Nc2ccc(C(F)(F)F)cn2)cc1Nc1ccccc1N(C)S(C)(=O)=O [Example 92, N-methoxy-4-((2-(N-methylmethanesulfonamido)phenyl)amino)-6-((5-(trifluoromethyl)pyridin-2-yl)amino)nicotinamide] | > 10 µM | > 10 µM
CONC(=O)c1cnc(NC(=O)[C@H]2CC2(C)C)cc1Nc1ccc(C2CC2)cc1N(C)S(C)(=O)=O [Example 94, (S)-4-((4-cyclopropyl-2-(N-methylmethanesulfonamido)phenyl)amino)-6-(2,2-dimethylcyclopropyl-1-carboxamido)-N-methoxy nicotinamide] | > 10 µM | > 10 µM
CCONC(=O)c1cnc(Nc2ccccn2)cc1Nc1cc(F)c(C2CC2)cc1N(C)S(C)(=O)=O [Example 96, 4-((4-cyclopropyl-5-fluoro-2-(N-methylmethanesulfonamido)phenyl)amino)-N-ethoxy-6-(pyridin-2-ylamino)nicotinamide] | > 10 µM | > 10 µM
CCONC(=O)c1cnc(Nc2cc(C)c(F)cn2)cc1Nc1cc(F)c(C2CC2)cc1N(C)S(C)(=O)=O [Example 99, 4-((4-cyclopropyl-5-fluoro-2-(N-methylmethanesulfonamido)phenyl)amino)-N-ethoxy-6-((5-fluoro-4-methylpyridin-2-yl)amino)nicotinamide] | > 10 µM | > 10 µM
CONC(=O)c1cnc(Nc2ccc(C#N)cc2)cc1Nc1ccccc1N(C)S(C)(=O)=O [Example 103, 6-((4-cyanophenyl)amino)-N-methoxy-4-((2-(N-methylmethanesulfonamido)phenyl)amino)nicotinamide] | > 10 µM | > 10 µM
CONC(=O)c1cnc(Nc2ccc(F)cc2)cc1Nc1ccccc1N(C)S(C)(=O)=O [Example 104, 6-((4-fluorophenyl)amino)-N-methoxy-4-((2-(N-methylmethanesulfonamido)phenyl)amino)nicotinamide] | > 10 µM | > 10 µM
CONC(=O)c1cnc(NC(=O)[C@H]2CC2(C)C)cc1Nc1ccccc1N(C)S(C)(=O)=O [Example 105, (S)-6-(2,2-dimethylcyclopropyl-1-carboxamido)-N-methoxy-4-((2-(N-methylmethanesulfonamido)phenyl)amino)nicotinamide] | > 10 µM | > 10 µM
